These are literature values, as cited in patent US8795652B1, “Methods and compositions to treat myocardial conditions” (Abbott Cardiovascular Systems Inc., priority 2003, dated 2014).

Series [1] concerns ductus arteriosus.

Take `FC(F)(F)C(F)(F)C(F)(F)C(F)(F)CCC(F)(F)C(F)(F)C(F)(F)C(F)(F)F` [F-44E, 1,2-bis(perfluorobutyl)ethane]: the “O2 solubility at 37° C.” value was 50 V %.

With `FC1(F)C(F)(F)C(F)(F)C2(F)C(F)(F)C(F)(F)C(F)(F)C(F)(F)C2(F)C1(F)F` (stereo not shown) [FDC, Perfluorodecalin], the “O2 solubility at 37° C.” value is on record as 45 V %.

As to `CCCCC[C@H](O)/C=C/[C@H]1[C@H](O)CC(=O)[C@@H]1C/C=C\CCCC(=O)O` [PGE2, prostaglandin E2], the arterial oxygen saturation entry in series [1] (four neonates, infused prior to and during surgery) is “immediate and persistent rise”. In series [1] (in vivo), the side effects entry was “No major side effects occurred, except for pyrexia in two infants”.
